Results on three substances are retold here after publication PMC5329948, “Caspase vinyl sulfone small molecule inhibitors prevent axonal degeneration in human neurons and reverse cognitive impairment in Caspase-6-overexpressing mice” (Molecular Neurodegeneration, 2017).

One data set has as its system Caspase-5. Also on record: method as in PMID 25616965. As to conditions: cited from earlier work.
Data set [1] concerns Casp6 (mutant huntingtin cleavage). Also on record: method as in PMID 25616965. The following applies: read-out: IC50 against mutant huntingtin cleavage (FRET); cited from earlier work.
In data set [2] the test system is Casp6 (VEID-aminoluciferin cleavage). Also on record: method as in PMID 25616965. The following applies: read-out: inhibition of cleavage of VEID-aminoluciferin; cited from earlier work.
The next data set concerns recombinant Casp6. Also on record: method as in PMID 9092497. As to conditions: read-out: Michaelis-Menten constant (Km) for recombinant Casp6; cited from earlier work.
A further data set has as its system Caspase-3. Also noted: method as in PMID 9092497. As to conditions: read-out: Michaelis-Menten constant (Km) for Caspase-3; cited from earlier work.
The test system of another data set is mammals. The following applies: fmk moiety metabolized into fluorocitrate; cited from earlier work.
Data set [3] deals with APPWT-transfected primary human CNS neurons. In words: Neuritic beading/degeneration in APPWT-transfected primary human neurons. As to conditions: NWL 100 μM, Z-VEID-fmk 5 μM. Type of data set: cell-based. Here is the method:
Immunofluorescence on human neuron cultures: Primary human neurons were pre-treated 2 h and serum-deprived in the presence of 100 μM NWL-117, 100 μM NWL-154, or 5 μM Z-VEID-fmk (Biomol, Plymouth meeting, PA, USA) for 24 h. Following treatment, human neurons were washed once with warm PBS, fixed for 20 min at room temperature with 4% paraformaldehyde (Sigma, Oakville, ON, CA)/4% sucrose (BioRad, Mississauga, ON, CA) for TubΔCasp6 or 2% formaldehyde (Thermo Fisher Scientific, Waltham, MA, USA)/0.2% glutaraldehyde (Sigma, Oakville, ON, CA) for pBudEGFP or pBudEGFP/APP^WT-transfected neurons, incubated in permeabilization buffer (0.1% Triton X-100, 0.1 sodium citrate) for 1 min on ice, washed with PBS, blocked for 20 min at room temperature with 10% goat serum (Sigma, Oakville, ON, CA), and incubated with primary antibodies diluted in 10% goat serum in PBS overnight at 4 °C in a humid chamber. The glass coverslips were washed with PBS, and incubated with goat anti-rabbit secondary antibody coupled to Alexa 488 (Molecular Probes, Eugene, OR, USA) or Cy3 (GE Healthcare Life Sciences, Baie D’Urfe, QC, CA) and Hoechst 33342 (ImmunoChemistry, Bloomington, MN, USA) at 1 μg/mL for 2 h at room temperature. The coverslips were washed with PBS and rinsed in Milli-Q water before mounting in fluoromount (Dako, Burlington, ON, CA). Images were acquired by fluorescence microscopy and quantified using the ImageJ software (NIH, Bethesda, MD, USA) for TubΔCasp6 and manually counted for transfected EGFP(+)-neurons. Time lapse-imaging by live fluorescence microscopy: Primary human neurons were transfected with gold beads coated with pBudEGFP or pBudEGFP/APP^WT using a Helios Gene gun (BioRad, Mississauga, ON, CA). Briefly, cells were pre-treated with 100 μM NWL inhibitors or 5 μM Z-VEID-fmk for 2 h. The media was removed and the neurons were shot at 100 psi. The media was quickly replaced with the inhibitors present. The plasmid was expressed for 16 h before setting up the fluorescence microscope (Nikon Eclipse Ti) to acquire 20 images per condition every hour for 72 h at 37 °C with 5% CO2. The images were analyzed by counting the total number of neurons (50–100 neurons per condition per independent experiment), and the number of beaded, swollen soma, and healthy neurons. In addition, the time at which cells beaded was noted. Phase contrast microscopy: HCT116 cells, plated at a density of 1×10^5 cells/well and human neurons, plated at a density of 6×10^6 cells/well on poly-L-lysine were treated with PBS, 100 μM NWL-117, 100 μM NWL-154, or 2 μM staurosporine (Biomol, Plymouth meeting, PA, USA) for 24 h. Images were acquired with the Nikon Eclipse Ti microscope and the NIS-Elements (Version 3.10) software.

On to “ED11: 24 amino acid peptide (GRKKRRQRRRPPQSSEIVLDGTDN) containing HIV TAT-peptide and huntingtin sequences; Casp6 inhibitor”, for which the “Caspase-5 activity on the FRET assay” value in the data set on Caspase-5 is given as “significant enhancement”. The IC50 is 0.0121 µM in data set [1] and > 10 µM in data set [2].
On to “VEID: Val-Glu-Ile-Asp peptide substrate sequence preferred by Casp6 (printed: Val-Glu-Ile-Asp)”, for which the Km – broadly, the concentration of substrate that gives half-maximal velocity – with recombinant Casp6 is 30 µM; with Caspase-3, 250 µM.
For the substance “benzyloxycarbonyl-Val-Glu-Ile-Asp-fmk [Z-VEID-fmk, reference compound]”, the toxicity to mammals result in the data set on mammals is recorded as “toxic to mammals”. Moreover, the neuritic beading entry in data set [3] (APPWT/EGFP co-expression, 48 h) is recorded as “prevented neuritic beading”. Besides, the “percentage of beaded neurons, fold of EGFP-alone” value in data set [3] (live imaging 72 h, APPWT vehicle 1.52, EGFP-alone 1.00, mean ± SEM) was found to be 0.97 fold.
